Assay results from paper PMC7663616, “(5-Hydroxy-4-oxo-2-styryl-4H-pyridin-1-yl)-acetic Acid Derivatives as Multifunctional Aldose Reductase Inhibitors” (Molecules, 2020).
“And” between values parts separate entries of the source, which are not always exact repeats. Identical values can stand only once. Like-named read-outs stand apart in the source and are kept apart here.

Columns and labels:
human recombinant ALR1 = biological target: T1, human recombinant ALR1 (Homo sapiens, UniProt P14550); experiment: ALR1 enzyme inhibition assay (NADPH oxidation, sodium D-gluconate substrate); type: biochemical; settings: for inhibition at 100 µM: read-out: ALR1 Inh. %; for SI: selectivity index, defined as IC50[ALR1]: IC50[ALR2]
T1 sequence (P14550 1-325): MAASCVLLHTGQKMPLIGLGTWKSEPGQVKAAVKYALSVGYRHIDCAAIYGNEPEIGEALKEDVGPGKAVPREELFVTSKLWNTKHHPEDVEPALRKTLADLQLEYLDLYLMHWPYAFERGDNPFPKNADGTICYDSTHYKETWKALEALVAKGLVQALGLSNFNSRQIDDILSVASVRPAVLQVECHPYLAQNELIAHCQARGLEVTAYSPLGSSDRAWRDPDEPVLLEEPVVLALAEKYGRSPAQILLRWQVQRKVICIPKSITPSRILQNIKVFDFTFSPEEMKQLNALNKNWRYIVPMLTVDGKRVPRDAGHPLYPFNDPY
Procedure: (§1) All the title compounds were tested for their inhibitory activity against human recombinant ALR2.
The ALR2 inhibition activity was evaluated in a mixture of reaction with 50 μL NADPH (0.1 mM), 50 μL sodium phosphate buffer (pH = 6.2, 100 mM), 50 μL human recombinant ALR2, 1 μL dimethyl sulfoxide (DMSO) as solvent, and 50 μL D,L-glyceraldehyde (10 mM) which served as a substrate. […] Before the substrate was added, the mixture was incubated at 30 °C for 3 min, then the reaction was started when the substrate was added, and was monitored for 4 min. The ALR1 inhibition activity experiment was conducted at 37 °C in the mixture containing 50 μL NADPH (0.12 mM), 50 μL human recombinant ALR1, 50 μL sodium phosphate buffer (pH = 7.2, 100 mM), 50 μL sodium […] (20 mM) as a substrate, and 1 μL DMSO as solvent. Before the substrate sodium […] was added, the mixture was incubated at 37 °C for 3 min, then the substrate was added to start the reaction, which was monitored for 4 min.
(§2) The inhibitory activities of the title synthetic compounds against ALR2 and ALR1 were examined by adding 1 μL of the inhibitor solution to the ALR2 or ALR1 mixtures. All compounds were dissolved in DMSO, and the solutions were diluted with DMSO to desirable concentrations. To correct for the nonenzymatic oxidation of NADPH, the rate of NADPH oxidation in the presence of all of the reaction mixture components except the substrate was subtracted from each experimental rate. The title compounds were tested at concentrations ranging from 100 μM to 1 μM, except compound 7l which were tested 10 μM to 0.1 μM. […] The inhibitory rates of tested compounds were calculated by equation as follows:Inhibitory rate (%) = (1 − ∆Asample/∆AE+DMSO) × 100%(1) sample = enzyme + compound + DMSO(2) E + DMSO = enzyme + DMSO(3)
(§3) The experiments were performed in triplicate.

human recombinant ALR2 = human recombinant ALR2 (Homo sapiens, UniProt P15121); experiment: ALR2 enzyme inhibition assay (NADPH oxidation, D,L-glyceraldehyde substrate); type: biochemical
Procedure: as §1
The ALR2 inhibition activity was evaluated in a mixture of reaction with 50 μL NADPH (0.1 mM), 50 μL sodium phosphate buffer (pH = 6.2, 100 mM), 50 μL human recombinant ALR2, 1 μL dimethyl sulfoxide (DMSO) as solvent, and 50 μL D,L-glyceraldehyde (10 mM) which served as a substrate. […] Before the substrate was added, the mixture was incubated at 30 °C for 3 min, then the reaction was started when the substrate was added, and was monitored for 4 min.
as §2, with “rate.” for “rate. The title compounds were tested at concentrations ranging from 100 μM to 1 μM, except compound 7l which were tested 10 μM to 0.1 μM.”
as §3

[1] = tested on: lipid peroxidation in rat brain homogenate; experiment: Lipid peroxidation suppression (TBARS/MDA) in rat brain homogenate induced by Fe(III)/ascorbic acid; type: biochemical; settings: tested in concentration of 100 μM, n = 3
Description: Lipid peroxidation reactions involve free radical attacks on unsaturated fatty acid, producing free radicals and lipid peroxides which eventually harm the organism and usually decompose to form poisonous malonaldehyde (MDA). Thiobarbituric acid reactive substances (TBARS), which generated from the condensation of thiobarbituric acid and malondialdehyde, are considered as key biomarkers to determine the level of lipid peroxidation. For further identification that the derivatives tested in DPPH scavenging assay can be effective in heterogeneous oxidative pathway, the suppression effect of compounds on the hydroxyl radical-dependent lipoperoxidation in rat brain homogenate oxidant system which induced by Fe(III)/ascorbic acid was also evaluated.
Compounds 7a, 7c, 7g and 7k–l that were already described in the DPPH radical scavenging activity were investigated in the suppression of lipid peroxidation (Table 3).
(§4) Antioxidant assays were performed with the similar protocol as described previously.

[2] = DPPH radical scavenging assay; settings: n = 3
Procedure: In this part, the antioxidant activity was measured by an intrinsic chemical reactivity toward radicals, in a homogeneous reaction system of the methanol solution of 1,1-diphenyl-2-trinitrophenylhydrazine (DPPH) (0.2 mM), and 6-hydroxy-2,5,7,8-tetramethyl- chroman-2-carboxylic acid (Trolox) served as a reference compound.
as §4

[3] = tested on: lipid peroxidation in rat brain homogenate; set-up: method as in Chaves S. et al. [37]; settings: ref Chaves S. et al. [37]; cited from earlier work
[4] = set-up: method as in Lewis F. W. et al [36]; settings: 100 μM column; ref Lewis F. W. et al [36]; cited from earlier work
[5] = tested in concentration of 100 μM, n = 3
[6] = n = 3, mean ± SD, read-out: IC50 for ALR2
[7] = raw data, average of three replicates, unit not given (molar scale), read-out: IC50 average (ALR2)
[8] = raw data, single replicate, unit not given (molar scale by log(dose)), read-out: IC50 (ALR2)

| Compound | IC50 (human recombinant ALR1; n = 3) [µM] | inhibition at 100 µM (human recombinant ALR1; [5]) [%] | IC50 (human recombinant ALR2; [6]) [µM] | IC50 (human recombinant ALR2; [7]) [µM] | IC50 (human recombinant ALR2; [8]) | MDA inh. % [1] [%] | % of Inhibition of Control Value (DPPH) ([2]; 100 μM) [%] | also measured |
| --- | --- | --- | --- | --- | --- | --- | --- | --- |
| O=C(O)Cn1cc(O)c(=O)cc1C=Cc1ccccc1 [7a, (5-Hydroxy-4-oxo-2-styryl-4H-pyridin-1-yl)-acetic acid] | > 100 | 38.8 ± 1.75 | 8.41 ± 0.63 | 8.41 | 7.85 µM and 8.09 µM and 9.28 µM | 19.28 ± 0.98 | 22.90 ± 3.30 | melting point: 254 to 255 °C |
| Cc1ccc(C=Cc2cc(=O)c(O)cn2CC(=O)O)cc1 [7b, [5-Hydroxy-4-oxo-2-(2-p-tolyl-vinyl)-4H-pyridin-1-yl]-acetic acid] |  |  | 5.3 ± 0.6 | 5.3 | 4.48 µM and 5.49 µM and 5.91 µM |  |  | melting point: 256 to 257 °C |
| CC(C)(C)c1ccc(C=Cc2cc(=O)c(O)cn2CC(=O)O)cc1 [7c, {2-[2-(4-tert-Butyl-phenyl)-vinyl]-5-hydroxy-4-oxo-4H-pyridin-1-yl}-acetic acid] | > 100 | 49.41 ± 0.45 | 2.98 ± 0.73 | 2.98 | 2.06 µM and 3.03 µM and 3.84 µM | 26.10 ± 1.06 | 25.44 ± 2.36 |  |
| COc1ccc(C=Cc2cc(=O)c(O)cn2CC(=O)O)cc1 [7d, {5-Hydroxy-2-[2-(4-methoxy-phenyl)-vinyl]-4-oxo-4H-pyridin-1-yl}-acetic acid] |  |  | 6.78 ± 0.91 | 6.78 | 5.7 µM and 7.92 µM and 6.7 µM |  |  | I% (ALR2 inhibitory rate) (human recombinant ALR2; raw data, single replicate, log(dose) -5): 54.7% |
| COc1ccc(C=Cc2cc(=O)c(O)cn2CC(=O)O)cc1OC [7e, {2-[2-(3,4-Dimethoxy-phenyl)-vinyl]-5-hydroxy-4-oxo-4H-pyridin-1-yl}-acetic acid] |  |  | 9.56 ± 0.98 | 9.56 | 9.61 µM and 8.33 µM and 10.7 µM |  |  |  |
| O=C(O)Cn1cc(O)c(=O)cc1C=Cc1ccc(F)cc1 [7f, {2-[2-(4-Fluoro-phenyl)-vinyl]-5-hydroxy-4-oxo-4H-pyridin-1-yl}-acetic acid] |  |  | 6.64 ± 2.39 | 6.64 | 4.52 µM and 9.99 µM and 5.42 µM |  |  |  |
| O=C(O)Cn1cc(O)c(=O)cc1C=Cc1ccc(F)c(F)c1 [7g, {2-[2-(3,4-Difluoro-phenyl)-vinyl]-5-hydroxy-4-oxo-4H-pyridin-1-yl}-acetic acid] | > 100 | 35.8 ± 3.23 | 2.11 ± 0.34 | 2.11 | 2.52 µM and 2.11 µM and 1.7 µM | 55.02 ± 3.00 | 28.50 ± 0.95 |  |
| O=C(O)Cn1cc(O)c(=O)cc1C=Cc1ccc(C(F)(F)F)cc1 [7h, {5-Hydroxy-4-oxo-2-[2-(4-trifluoromethyl-phenyl)-vinyl]-4H-pyridin-1-yl}-acetic acid] |  |  | 10.7 ± 1.47 | 10.7 | 8.88 µM and 10.8 µM and 12.5 µM |  |  |  |
| CS(=O)(=O)c1ccc(C=Cc2cc(=O)c(O)cn2CC(=O)O)cc1 [7i, {5-Hydroxy-2-[2-(4-methanesulfonyl-phenyl)-vinyl]-4-oxo-4H-pyridin-1-yl}-acetic acid] |  |  | 17.1 ± 2.3 | 17.1 | 16.1 µM and 20.3 µM and 15 µM |  |  |  |
| Nc1ccc(C=Cc2cc(=O)c(O)cn2CC(=O)O)cc1 [7j, {2-[2-(4-Amino-phenyl)-vinyl]-5-hydroxy-4-oxo-4H-pyridin-1-yl}-acetic acid] |  |  | 8.19 ± 0.43 | 8.19 | 8.07 µM and 7.74 µM and 8.76 µM |  |  |  |
| O=C(O)Cn1cc(O)c(=O)cc1C=Cc1ccc(O)cc1 [7k, {5-Hydroxy-2-[2-(4-hydroxy-phenyl)-vinyl]-4-oxo-4H-pyridin-1-yl}-acetic acid] | 15 ± 0.54 | 75.8 ± 2.34 | 2.36 ± 0.42 |  | 2.63 µM and 1.86 µM and 2.86 µM | 90.73 ± 3.97 | 96.69 ± 0.72 | SI (human recombinant ALR1): 6.36; % of Inhibition of Control Value (DPPH) ([2]; 1 μM): 33.08 ± 0.72%; % of Inhibition of Control Value (DPPH) ([2]; 5 μM): 72.01 ± 1.80%; % of Inhibition of Control Value (DPPH) ([2]; 10 μM): 89.31 ± 0.62% |
| O=C(O)Cn1cc(O)c(=O)cc1C=Cc1ccc(O)c(O)c1 [7l, {2-[2-(3,4-Dihydroxy-phenyl)-vinyl]-5-hydroxy-4-oxo-4H-pyridin-1-yl}-acetic acid] | 19.9 ± 1.72 | 80 ± 3.59 | 0.789 ± 0.183 | 0.789 | 0.916 µM and 0.921 µM and 0.53 µM | 88.76 ± 2.04 | 97.96 ± 0.36 | SI (human recombinant ALR1): 25.23; % of Inhibition of Control Value (DPPH) ([2]; 1 μM): 41.48 ± 0.95%; % of Inhibition of Control Value (DPPH) ([2]; 5 μM): 67.18 ± 0.62%; % of Inhibition of Control Value (DPPH) ([2]; 10 μM): 82.44 ± 1.65% |
| Cc1c(O)c(=O)ccn1C [Deferiprone, 3-hydroxy-1,2-dimethyl-1H-pyridin-4-one] |  |  |  |  |  |  |  | MDA inh. % [3]: 25%; % of Inhibition of Control Value (DPPH) [4]: 63% |
| Cc1c(C)c2c(c(C)c1O)CCC(C)(C(=O)O)O2 (stereo not drawn) [Trolox, 6-hydroxy-2,5,7,8-tetramethyl-chroman-2-carboxylic acid, reference compound] |  |  |  |  |  | 74.82 ± 1.82 | 92.32 ± 0.19 | % of Inhibition of Control Value (DPPH) ([2]; 1 μM): 11.89 ± 1.39%; % of Inhibition of Control Value (DPPH) ([2]; 5 μM): 45.53 ± 1.12%; % of Inhibition of Control Value (DPPH) ([2]; 10 μM): 80.33 ± 1.22% |
| CC(/C=C1\SC(=S)N(CC(=O)O)C1=O)=C\c1ccccc1 [epalrestat, reference compound] | 3.56 ± 0.18 |  |  |  |  |  |  | inhibition at 100 µM (human recombinant ALR1): 80.8 ± 3.74% |
